Data as given in patent publication US6537986B2, “Oxazolidinone antibacterial agents having a thiocarbonyl funtionality” (Pharmacia & Upjohn Company, priority 1997, dated 2003).
Values after ≈ are worked out from the molar mass of the structure shown. Like-named read-outs stand apart in the source and are kept apart here.

Columns and labels:
[1] = tested on: S. epidermidis (SEPI 12084); experiment: MIC, standard agar dilution method; format: cell-based; conditions: Staphylococcus epidermidis, Table 1, Mueller Hinton agar, incubated overnight at 35° C., read-out: Oxazolidinone MIC Values (Gram+) SEPI 12084
Method: (§1) MIC Test Method The in vitro MICs of test compounds were determined by a standard agar dilution method. A stock drug solution of each analog is prepared in the preferred solvent, usually DMSO:H2O (1:3). Serial 2-fold dilutions of each sample are made using 1.0 ml aliquots of sterile distilled water. To each 1.0 ml aliquot of drug is added 9 ml of molten Mueller Hinton agar medium. The drug-supplemented agar is mixed, poured into 15×100 mm petri dishes, and allowed to solidify and dry prior to inoculation. Vials of each of the test organisms are maintained frozen in the vapor phase of a liquid nitrogen freezer. Test cultures are grown overnight at 35° C. on the medium appropriate for the organism. Colonies are harvested with a sterile swab, and cell suspensions are prepared in Trypticase Soy broth (TSB) to equal the turbidity of a 0.5 McFarland standard. A 1:20 dilution of each suspension is made in TSB. […] The plates are incubated overnight at 35° C. Following incubation the Minimum Inhibitory Concentration (MIC μg/ml), the lowest concentration of drug that inhibits visible growth of the organism, is read and recorded.

S. aureus (SAUR 9213) = experiment: MIC, standard agar dilution method; format: cell-based; conditions: Staphylococcus aureus, incubated overnight at 35° C.
Method: as §1, with “A stock drug solution of each analog is prepared in the preferred solvent, usually DMSO:H2O (1:3).” left out

[2] = tested on: Enterococcus faecalis (EFAE 9217); experiment: MIC, standard agar dilution method; format: cell-based; conditions: incubated overnight at 35° C.
Method: as §1, with “A stock drug solution of each analog is prepared in the preferred solvent, usually DMSO:H2O (1:3).” left out

S. pyogenes (SPYO 152) = experiment: MIC, standard agar dilution method; format: cell-based; conditions: Streptococcus pyogenes, incubated overnight at 35° C.
Method: as §1, with “A stock drug solution of each analog is prepared in the preferred solvent, usually DMSO:H2O (1:3).” left out

[3] = tested on: S. pneumoniae (SPNE 9912); experiment: MIC, standard agar dilution method; format: cell-based; conditions: Streptococcus pneumoniae, incubated overnight at 35° C.
Method: as §1, with “A stock drug solution of each analog is prepared in the preferred solvent, usually DMSO:H2O (1:3).” left out

[4] = tested on: S. epidermidis (SEPI 30593); experiment: MIC, standard agar dilution method; format: cell-based; conditions: Staphylococcus epidermidis, Table II, Mueller Hinton agar, incubated overnight at 35° C.
Method: as §1, with “A stock drug solution of each analog is prepared in the preferred solvent, usually DMSO:H2O (1:3).” left out

E. Faecium (EFAE 12712) = experiment: MIC, standard agar dilution method; format: cell-based; conditions: Enterococcus faecium; Table II; key: E. Faecium; agar dilution, Mueller Hinton agar, incubated overnight at 35° C.; read-out: EFAE 12712 MIC
Method: as §1, with “A stock drug solution of each analog is prepared in the preferred solvent, usually DMSO:H2O (1:3).” left out

[5] = tested on: Moraxella catarrhalis (MCAT 30610); experiment: MIC, standard agar dilution method; format: cell-based; conditions: Moraxella catarrhalis, Table II, Mueller Hinton agar, incubated overnight at 35° C.
Method: as §1, with “A stock drug solution of each analog is prepared in the preferred solvent, usually DMSO:H2O (1:3).” left out

[6] = tested on: Haemophilus influenzae (HINF 30063); experiment: MIC, standard agar dilution method; format: cell-based; conditions: Haemophilus influenzae, Table II, Mueller Hinton agar, incubated overnight at 35° C.
Method: as §1, with “A stock drug solution of each analog is prepared in the preferred solvent, usually DMSO:H2O (1:3).” left out

[7] = Table 1, Mueller Hinton agar, read-out: Oxazolidinone MIC Values (Gram+) SAUR 9213
[8] = Enterococcus faecalis, Table 1, Mueller Hinton agar, read-out: Oxazolidinone MIC Values (Gram+) EFAE 9217
[9] = Table 1, Mueller Hinton agar, read-out: Oxazolidinone MIC Values (Gram+) SPYO 152
[10] = Table 1, Mueller Hinton agar, read-out: Oxazolidinone MIC Values (Gram+) SPNE 9912
[11] = Table II, Mueller Hinton agar, read-out: SAUR 9213 MIC
[12] = Table II, key: Enterococcus faecalis, Mueller Hinton agar, read-out: EFAE 9217 MIC
[13] = Table II, Mueller Hinton agar, read-out: SPYO 152 MIC
[14] = Table II, Mueller Hinton agar, read-out: SPNE 9912 MIC

Compound | MIC [1] [µg/mL] | MIC (S. aureus (SAUR 9213); [7]) [µg/mL] | MIC [2, 8] [µg/mL] | MIC (S. pyogenes (SPYO 152); [9]) [µg/mL] | MIC [3, 10] [µg/mL] | MIC (S. aureus (SAUR 9213); [11]) [µg/mL] | MIC [2, 12] [µg/mL] | MIC [4] [µg/mL] | MIC (S. pyogenes (SPYO 152); [13]) [µg/mL] | MIC (E. Faecium (EFAE 12712)) [µg/mL] | MIC [3, 14] [µg/mL] | MIC [5] [µg/mL] | MIC [6] [µg/mL] | melting point
CC(=O)NC[C@H]1CN(c2ccc(N3CCC4(CC3)NC(=O)NC4=O)c(F)c2)C(=O)O1 [reference compound] | 4 (≈ 9.54 µM) | 16 (≈ 38.1 µM) | 8 (≈ 19.1 µM) | 1 (≈ 2.38 µM) | 0.5 (≈ 1.19 µM) |  |  |  |  |  |  |  |  | 
CC(=S)NC[C@H]1CN(c2ccc(N3CCOCC3)c(F)c2)C(=O)O1 [Example 1, (S)-N-[[3-[3-Fluoro-4-(4-morpholinyl)phenyl]-2-oxo-5-oxazolidinyl]methyl]thioacetamide] | 0.25 (≈ 0.707 µM) | 1 (≈ 2.83 µM) | 0.5 (≈ 1.41 µM) | 0.13 (≈ 0.368 µM) | 0.13 (≈ 0.368 µM) | 1 (≈ 2.83 µM) | 0.5 (≈ 1.41 µM) | 0.25 (≈ 0.707 µM) | < 0.125 | 0.5 (≈ 1.41 µM) | < 0.125 | 1 (≈ 2.83 µM) | 8 (≈ 22.6 µM) | 157.5 to 158.5 °C
NC(=S)NC[C@H]1CN(c2ccc(N3CC[S+]([O-])CC3)c(F)c2)C(=O)O1 [Example 33, (S)-N-[[3-[3-Fluoro-4-(4-thiomorpholinyl)phenyl]-2-oxo-5-oxazolidinyl]methyl]thiourea, thiomorpholine S-oxide] |  |  |  |  |  | 4 (≈ 10.3 µM) | 4 (≈ 10.3 µM) | 2 (≈ 5.17 µM) | 0.25 (≈ 0.647 µM) | 1 (≈ 2.59 µM) | 0.25 (≈ 0.647 µM) | 2 (≈ 5.17 µM) | 4 (≈ 10.3 µM) | 212 to 213 °C
CC(=O)NC[C@H]1CN(c2ccc(N3CCOCC3)c(F)c2)C(=O)O1 [reference compound] | 1 (≈ 2.96 µM) | 2 (≈ 5.93 µM) | 2 (≈ 5.93 µM) | 1 (≈ 2.96 µM) | 0.5 (≈ 1.48 µM) |  |  |  |  |  |  |  |  | 
O=C1O[C@@H](CNC(=S)C(F)F)CN1c1ccc(N2CCOCC2)c(F)c1 [Example 18, (S)-N-[[3-[3-Fluoro-4-(4-morpholinyl)phenyl]-2-oxo-5-oxazolidinyl]methyl]-α,α-difluorothioacetamide] |  |  |  |  |  | 2 (≈ 5.14 µM) | 2 (≈ 5.14 µM) | 1 (≈ 2.57 µM) | 1 (≈ 2.57 µM) | 2 (≈ 5.14 µM) | < 0.5 | 4 (≈ 10.3 µM) | 32 (≈ 82.2 µM) | 125 to 127 °C
CC(=S)NC[C@H]1CN(c2ccc(N3CCSCC3)c(F)c2)C(=O)O1 [Example 26, (S)-N-[[3-[3-Fluoro-4-(4-thiomorpholinyl)phenyl]-2-oxo-5-oxazolidinyl]methyl]thio-acetamide] |  |  |  |  |  | 1 (≈ 2.71 µM) | 1 (≈ 2.71 µM) | 0.5 (≈ 1.35 µM) | 0.5 (≈ 1.35 µM) | 1 (≈ 2.71 µM) | 0.25 (≈ 0.677 µM) | 2 (≈ 5.41 µM) | 16 (≈ 43.3 µM) | 155 to 156 °C
CC(=S)NC[C@H]1CN(c2ccc3c(c2)CCN3C(=O)CO)C(=O)O1 [Example 24, (S)-N-[[3-[1-(Hydroxyacetyl)-5-indolinyl]-2-oxo-5-oxazolidinyl]methyl]thioacetamide] |  |  |  |  |  | 1 (≈ 2.86 µM) | 0.5 (≈ 1.43 µM) | 0.25 (≈ 0.715 µM) | 0.25 (≈ 0.715 µM) | 0.5 (≈ 1.43 µM) | < 0.125 | 2 (≈ 5.72 µM) | 4 (≈ 11.4 µM) | 175 to 176 °C (dec.)
CC(=S)NC[C@H]1CN(c2ccc(N3CCN(C(=O)CO)CC3)c(F)c2)C(=O)O1 [Example 25, (S)-N-[[3-[3-Fluoro-4-[4-(hydroxyacetyl)-1-piperazinyl]phenyl]-2-oxo-5-oxazolidinyl]methyl]thioacetamide] |  |  |  |  |  | 0.5 (≈ 1.22 µM) | 0.5 (≈ 1.22 µM) | 0.25 (≈ 0.609 µM) | < 0.125 | 0.5 (≈ 1.22 µM) | < 0.125 | 2 (≈ 4.87 µM) | 2 (≈ 4.87 µM) | 163 to 165 °C
NC(=S)NC[C@H]1CN(c2ccc3c(c2)CCN3C(=O)CO)C(=O)O1 [Example 32, (S)-N-[[3-[1-(Hydroxyacetyl)-5-indolinyl]-2-oxo-5-5 oxazolidinyl]methyl]thiourea] |  |  |  |  |  | 16 (≈ 45.7 µM) | 4 (≈ 11.4 µM) | 2 (≈ 5.71 µM) | 0.25 (≈ 0.713 µM) | 2 (≈ 5.71 µM) | 0.25 (≈ 0.713 µM) | 2 (≈ 5.71 µM) | 8 (≈ 22.8 µM) | 214 to 215 °C (dec.)
CC(=S)NC[C@H]1CN(c2cc(F)c(N3CCN(C(=O)CO)CC3)c(F)c2)C(=O)O1 [Example 29, (S)-N-[[3-[3,5-Difluoro-4-[4-(hydroxyacetyl)-1-piperazinyl]phenyl]-2-oxo-5-oxazolidinyl]methyl]thioacetamide] |  |  |  |  |  | 0.25 (≈ 0.583 µM) | 0.25 (≈ 0.583 µM) | 0.25 (≈ 0.583 µM) | < 0.125 | 0.25 (≈ 0.583 µM) | < 0.125 | 0.5 (≈ 1.17 µM) | 2 (≈ 4.67 µM) | 110 to 111 °C (dec.)
NC(=S)NC[C@H]1CN(c2ccc(N3CCN(C(=O)CO)CC3)c(F)c2)C(=O)O1 [Example 31, (S)-N-[[3-[3-Fluoro-4-[4-(hydroxyacetyl)-1-piperazinyl]phenyl]-2oxo-5-oxazolidinyl]-methyl]thiourea] |  |  |  |  |  | 2 (≈ 4.86 µM) | 1 (≈ 2.43 µM) | 1 (≈ 2.43 µM) | 0.25 (≈ 0.608 µM) | 1 (≈ 2.43 µM) | < 0.125 | 1 (≈ 2.43 µM) | 4 (≈ 9.72 µM) | 209 to 210 °C
NC(=S)NC[C@H]1CN(c2ccc(-n3cncn3)c(F)c2)C(=O)O1 [Example 30] |  |  |  |  |  | 4 (≈ 11.9 µM) | 1 (≈ 2.97 µM) | 1 (≈ 2.97 µM) | 0.25 (≈ 0.743 µM) | 0.5 (≈ 1.49 µM) | < 0.125 | 2 (≈ 5.95 µM) | 8 (≈ 23.8 µM) | 214 to 215 °C
CC(=S)NC[C@H]1CN(c2ccc(N3CCC4(CC3)NC(=O)NC4=O)c(F)c2)C(=O)O1 [Example 3, (S)-N-[[3-[3-Fluoro-4-[2′,5′-dioxospiro[piperidine-4,4′-imidazolidine]-1-yl]phenyl]-2-oxo-5-oxazolidinyl]methyl]thioacetamide] | 1 (≈ 2.3 µM) | 4 (≈ 9.19 µM) | 2 (≈ 4.59 µM) | 0.5 (≈ 1.15 µM) | 0.25 (≈ 0.574 µM) | 4 (≈ 9.19 µM) | 2 (≈ 4.59 µM) | 1 (≈ 2.3 µM) | 0.5 (≈ 1.15 µM) | 1 (≈ 2.3 µM) | 0.25 (≈ 0.574 µM) | 4 (≈ 9.19 µM) | 16 (≈ 36.7 µM) | 
CC(=S)NC[C@H]1CN(c2ccc(N3CC[S+]([O-])CC3)c(F)c2)C(=O)O1 [Example 27, (S)-N-[[3-[3-Fluoro-4-(4-thiomorpholinyl)phenyl]-2-oxo-5-oxazolidinyl]methyl]thio-acetamide, thiomorpholine S-oxide] |  |  |  |  |  | 0.5 (≈ 1.3 µM) | 1 (≈ 2.59 µM) | 0.5 (≈ 1.3 µM) | 0.25 (≈ 0.649 µM) | 0.5 (≈ 1.3 µM) | < 0.125 | 2 (≈ 5.19 µM) | 4 (≈ 10.4 µM) | 176 to 177 °C
O=C1O[C@@H](CNC=S)CN1c1ccc(N2CCOCC2)c(F)c1 [Example 13, (S)-N-[[3-[3-Fluoro-4-(4-morpholinyl)phenyl]-2-oxo-5-oxazolidinyl]methyl]-thioformamide] |  |  |  |  |  | 1 (≈ 2.95 µM) | 2 (≈ 5.89 µM) | 1 (≈ 2.95 µM) | 1 (≈ 2.95 µM) | 2 (≈ 5.89 µM) | 0.5 (≈ 1.47 µM) | 8 (≈ 23.6 µM) | > 16 | 150 to 155 °C (dec.)
CC(=O)NC[C@H]1CN(c2ccc(N3CCN(c4nnc(C)s4)CC3)c(F)c2)C(=O)O1 [reference compound] | 0.25 (≈ 0.575 µM) | 0.5 (≈ 1.15 µM) | 1 (≈ 2.3 µM) | 0.25 (≈ 0.575 µM) | 0.13 (≈ 0.299 µM) |  |  |  |  |  |  |  |  | 
